Laboratory results from PubChem BioAssay AID1963854 (Molecular Pharmacology Branch, DTP, NCI, 2024).
Where “and” joins values, the source holds several entries; their conditions need not be identical. Equal values may be shown once.

Test system: 186277-243-T-J2-PDC complex spheroid viability
Test: Anticancer human tumor 186277-243-T-J2-PDC patient-derived colon adenocarcinoma cell line growth inhibition [POLQ]
Conditions: for viability, T/C: stronger effect = lower value
Procedure: Multicellular complex tumor spheroid response to Polymerase (POL) inhibitors (novobiocin, ART-558, RP6685) in combination with a variety of drugs and investigational agents in selected tumor cell lines
The POL inhibitors (novobiocin, ART-558, and RP6685) were evaluated both individually and in combination with standard of care and investigational anticancer small molecules within a complex spheroid model of solid tumors. . Complex spheroids include a stromal component modeled by human endothelial cells (HUVEC) and fibroblasts modeled by human mesenchymal stem cells (MSCs). The concentration ranges selected for each drug and investigational agent were based upon clinically achievable concentrations if the clinical Cmax of the agent was known.
Compounds. The drugs and investigational agents: novobiocin (NSC847541), ART-558 (NSC835418), RP-6685 (NSC848927), peposertib (NSC802822), ceralasertib (NSC780249), elimusertib (NSC800525), camonsertib (NSC841442), AZD-1390 (NSC803789), olaparib (NSC753686), talazoparib (NSC767125), rucaparib (NSC756644), sotorasib (NSC818433), MRTX-1133 (NSC836407), SN-38 (NSC673596), topotecan (NSC609699), epotoside (NSC141540), doxorubicin (NSC123127), gemcitabine (NSC613327), 5-fluorouracil (NSC19893), paclitaxel (NSC125973), vemurafenib (NSC761431), MSA-2 (NSC828583), SN-011 (NSC837082), adavosertib (NSC754352), prexasertib (NSC758257), carboplatin (NSC241240) and oxaliplatin (NSC266046), were obtained from the National Cancer Institute (NCI) Developmental Therapeutics Program Chemical Repository (21). The FDA-approved anticancer drug set is available from the Developmental Therapeutics Program at https://dtp.cancer.gov/organization/dscb/obtaining/. […] The stock solutions were prepared in dimethyl sulfoxide (DMSO, Sigma-Aldrich, St. Louis, MO, cat. D2650), except for the platinum compounds which were prepared in saline (Quality Biological, Gaithersburg, MD, cat. 114-055-101), at 800-fold the tested concentration and stored at -70 degrees C prior to their use. All drugs and investigational agents were tested over a range starting from a high concentration at or near the clinical Cmax and decreasing in half-log increments. If the clinical Cmax for an agent had not been determined, the highest concentration tested was 10 microM, except for SN-38, which was tested at a high concentration of 1 microM.
Cell Culture. All cells were maintained in an incubator at 37 degrees C and 5% CO2 with 95% humidity. The PDC lines were cultured according to standard operating procedures established by the NCI PDMR (https://pdmr.cancer.gov). Table 3 of the manuscript, lists the cell lines along with the number of the three cell types plated to form the mct-spheroids and media for tumor cell growth. After thawing, all PDC lines, except 997537-175-T-J1-PDC and 415267-285-R-J2-PDC, were cultured in Matrigel-coated flasks prepared with a working solution of 1X Ham's F-12 nutrient mix, without supplementation (Thermo Fisher Scientific, cat. 11765054), 100 U/mL penicillin-streptomycin (Thermo Fisher Scientific, cat. 15140122), and 2.5% Matrigel (Corning Inc., Corning, NY, cat. 354248) for the first three passages. The two PDC lines 997537-175-T-J1-PDC and 415267-285-R-J2-PDC were cultured on uncoated flasks. The 857933-349-R-J2-PDC line was cultured in 6C/Colon 1B media containing advanced DMEM/F-12 (Thermo Fisher Scientific, cat. 12634028), 10 mM HEPES (Thermo Fisher Scientific, cat. 15630080), 1X GlutaMAX supplement (Thermo Fisher Scientific, cat. 35050061), 0.1 mg/mL primocin (InvivoGen, San Diego, CA, cat. ant-pm-2), 10% defined fetal bovine serum, heat inactivated (HyClone Laboratories Inc., Logan, UT, cat. SH30070.03HI), 50% L-WRN conditioned media (ATCC, cat. CRL-3276), 1.25 mM N-Acetyl-L-cysteine (Sigma-Aldrich, cat. A9165), 10 mM nicotinamide (Sigma-Aldrich, cat. N0636), 1X B-27 supplement (Thermo Fisher Scientific, cat. 17504044), 1X N-2 supplement (Thermo Fisher Scientific, cat. […]

[1] = curve of first compound, second compound 0.0316 µM
[2] = curve of first compound, second compound 0.1 µM
[3] = curve of first compound, second compound 0.316 µM
[4] = curve of first compound, second compound 1 µM
[5] = curve of first compound, second compound 3.16 µM
[6] = curve of first compound, second compound 10 µM
[7] = second compound 0.0316 µM, first compound 0.0316 µM
[8] = second compound 0.0316 µM, first compound 0.1 µM
[9] = second compound 0.0316 µM, first compound 0.316 µM
[10] = second compound 0.0316 µM, first compound 1 µM
[11] = second compound 0.0316 µM, first compound 3.16 µM
[12] = second compound 0.0316 µM, first compound 10 µM
[13] = second compound 0.1 µM, first compound 0.0316 µM
[14] = second compound 0.1 µM, first compound 0.1 µM
[15] = second compound 0.1 µM, first compound 0.316 µM
[16] = second compound 0.1 µM, first compound 1 µM
[17] = second compound 0.1 µM, first compound 3.16 µM
[18] = second compound 0.1 µM, first compound 10 µM
[19] = second compound 0.316 µM, first compound 0.0316 µM
[20] = second compound 0.316 µM, first compound 0.1 µM
[21] = second compound 0.316 µM, first compound 0.316 µM
[22] = second compound 0.316 µM, first compound 1 µM
[23] = second compound 0.316 µM, first compound 3.16 µM
[24] = second compound 0.316 µM, first compound 10 µM
[25] = second compound 1 µM, first compound 0.0316 µM
[26] = second compound 1 µM, first compound 0.1 µM
[27] = second compound 1 µM, first compound 0.316 µM
[28] = second compound 1 µM, first compound 1 µM
[29] = second compound 1 µM, first compound 3.16 µM
[30] = second compound 1 µM, first compound 10 µM
[31] = second compound 3.16 µM, first compound 0.0316 µM
[32] = second compound 3.16 µM, first compound 0.1 µM
[33] = second compound 3.16 µM, first compound 0.316 µM
[34] = second compound 3.16 µM, first compound 1 µM
[35] = second compound 3.16 µM, first compound 3.16 µM
[36] = second compound 3.16 µM, first compound 10 µM
[37] = second compound 10 µM, first compound 0.0316 µM
[38] = second compound 10 µM, first compound 0.1 µM
[39] = second compound 10 µM, first compound 0.316 µM
[40] = second compound 10 µM, first compound 1 µM
[41] = second compound 10 µM, first compound 3.16 µM
[42] = second compound 10 µM, first compound 10 µM
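Further: spheroids exposed to compounds for seven days.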
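Wherever viability, T/C is given: 100% = DMSO vehicle control viability.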

SMILES: CNCc1ccc(-c2[nH]c3cc(F)cc4c3c2CCNC4=O)cc1
- viability, T/C (compound 0.0316 µM): 101% and 103% and 98.4%
- viability, T/C (compound 0.1 µM): 108% and 122% and 93.3%
- viability, T/C (compound 0.316 µM): 99.6% and 100% and 106%
- viability, T/C (compound 1 µM): 97.1% and 93.2% and 108%
- viability, T/C (compound 3.16 µM): 116% and 115% and 119%
- viability, T/C (compound 10 µM): 93.5% and 116% and 103%
- IC50 (curve of compound): > 10000 nM

SMILES: COc1cccc2c1C(=O)c1c(O)c3c(c(O)c1C2=O)CC(O)(C(=O)CO)CC3OC1CC(N)C(O)C(C)O1 (stereo not drawn) + Cc1cccc(N(C)C(=O)C2C(O)CCN2c2nc(C)cc(C(F)(F)F)c2C#N)c1
- IC50 [1]: 106 nM
- IC50 [2]: 116 nM
- IC50 [3]: 114 nM
- IC50 [4]: 120 nM
- IC50 [5]: 119 nM
- IC50 [6]: 76.6 nM
- viability, T/C [7]: 104%
- viability, T/C [8]: 52.1%
- viability, T/C [9]: 10.2%
- viability, T/C [10]: 0.23%
- viability, T/C [11]: 0.15%
- viability, T/C [12]: 0.39%
- viability, T/C [13]: 107%
- viability, T/C [14]: 55.6%
- viability, T/C [15]: 11.1%
- viability, T/C [16]: 0.24%
- viability, T/C [17]: 0.11%
- viability, T/C [18]: 0.45%
- viability, T/C [19]: 96.9%
- viability, T/C [20]: 55.2%
- viability, T/C [21]: 10.3%
- viability, T/C [22]: 0.56%
- viability, T/C [23]: 0.14%
- viability, T/C [24]: 0.43%
- viability, T/C [25]: 95.7%
- viability, T/C [26]: 57%
- viability, T/C [27]: 12%
- viability, T/C [28]: 0.45%
- viability, T/C [29]: 0.16%
- viability, T/C [30]: 0.7%
- viability, T/C [31]: 89.3%
- viability, T/C [32]: 57.4%
- viability, T/C [33]: 9.06%
- viability, T/C [34]: 0.16%
- viability, T/C [35]: 1.06%
- viability, T/C [36]: 0.34%
- viability, T/C [37]: 76.3%
- viability, T/C [38]: 42.1%
- viability, T/C [39]: 3.48%
- viability, T/C [40]: 0.3%
- viability, T/C [41]: 0.5%
- viability, T/C [42]: 0.36%

SMILES: CC[C@@]1(O)C(=O)OCc2c1cc1n(c2=O)Cc2cc3c(CN(C)C)c(O)ccc3nc2-1
- viability, T/C (compound 0.000316 µM): 96.6% and 87.7% and 89.5%
- viability, T/C (compound 0.001 µM): 91.4% and 93.5% and 116%
- viability, T/C (compound 0.00316 µM): 112% and 111% and 129%
- viability, T/C (compound 0.01 µM): 119% and 125% and 112%
- viability, T/C (compound 0.0316 µM): 71.8% and 125% and 61.7%
- viability, T/C (compound 0.1 µM): 48.8% and 88.5% and 38.6%
- IC50 (curve of compound): 94.1 nM and > 100 nM and 56.7 nM

SMILES: O=C(c1cc(Cc2n[nH]c(=O)c3ccccc23)ccc1F)N1CCN(C(=O)C2CC2)CC1 + COC1C(OC(N)=O)C(O)C(Oc2ccc3c(O)c(NC(=O)c4ccc(O)c(CC=C(C)C)c4)c(=O)oc3c2C)OC1(C)C
- IC50 [1]: > 10000 nM
- IC50 [2]: > 10000 nM
- IC50 [3]: > 10000 nM
- IC50 [4]: > 10000 nM
- IC50 [5]: > 10000 nM
- IC50 [6]: > 10000 nM
- viability, T/C [7]: 117%
- viability, T/C [8]: 105%
- viability, T/C [9]: 106%
- viability, T/C [10]: 92.3%
- viability, T/C [11]: 123%
- viability, T/C [12]: 66.7%
- viability, T/C [13]: 98.7%
- viability, T/C [14]: 102%
- viability, T/C [15]: 95%
- viability, T/C [16]: 97.3%
- viability, T/C [17]: 119%
- viability, T/C [18]: 63.2%
- viability, T/C [19]: 98.5%
- viability, T/C [20]: 111%
- viability, T/C [21]: 109%
- viability, T/C [22]: 94%
- viability, T/C [23]: 109%
- viability, T/C [24]: 66.1%
- viability, T/C [25]: 90.7%
- viability, T/C [26]: 101%
- viability, T/C [27]: 109%
- viability, T/C [28]: 102%
- viability, T/C [29]: 107%
- viability, T/C [30]: 65.9%
- viability, T/C [31]: 101%
- viability, T/C [32]: 105%
- viability, T/C [33]: 114%
- viability, T/C [34]: 90.1%
- viability, T/C [35]: 103%
- viability, T/C [36]: 63.9%
- viability, T/C [37]: 101%
- viability, T/C [38]: 91.6%
- viability, T/C [39]: 101%
- viability, T/C [40]: 115%
- viability, T/C [41]: 126%
- viability, T/C [42]: 66.2%
